Format in all cases: cell-based
The target of assay [1] is T1, EGFR dimers (L834R/V924R) (Homo sapiens, UniProt P00533, L858R/V948R).
T1 construct: one encoding human EGFR(1-998) fused with a split YFP-N(1-172) fragment; the other encoding hEGFR(1-998) linked to a split YFP-C(155-238) fragment; expressed in transfected cells; host or cells: HEK 293T
Briefly: Protein complementary assay (split YFP), PDCy3 binding to EGFR dimers, L834R with V924R. The conditions noted are these: V924R on top of L834R, 1 μM PDCy3. The source says: (§1) Protein complementary assay. For protein complementary assay, we designed two complementary constructs: one encoding human EGFR(1-998) fused with a split YFP-N(1-172) fragment, and the other encoding hEGFR(1-998) linked to a split YFP-C(155-238) fragment. Kinase mutations were introduced on both constructs to make a complementary pair. All the constructs were verified by sequencing. The paired constructs encoding the same receptor were co-transfected into HEK 293T cells. Transfected cells were starved in EX-Cell 293 Serum-Free Medium for 44 hours before treatment with 1 μM PDCy3 for additional 4 hours. The dimerization of the EGF receptors and the binding of dimerized receptors to PDCy3 were analyzed by flowcytometry.
(§2) To further investigate how EGFR kinase dimerization affects PDCy3 binding, we did a protein complementary assay. In the assay, split YFP fragments were individually fused to the C-terminus of the full length EGFR, and EGF kinase dimerization was reported by the fluorescence of assembled YPF from co-transfected receptors (FIG. 4A)^23. As shown in the FIG. 4B, the cells with co-expressed EGFR dimers could be divided into two populations. In one population, the quantity of bound PDCy3 increased linearly as a function of the expression levels of EGFR dimers (FIG. 4C). But in the other population, the quantity of bound PDCy3 was independent of the expressed EGFR dimers. […]

Assay [2] concerns the target T2, EGFR V924R (Homo sapiens, UniProt P00533, V948R).
T2 construct: plasmids encoding human EGFR (1-988) and split YFP fragments; expressed in transfected cells; host or cells: HEK 293T
Briefly: Flowcytometry of PDCy3 binding to cells expressing EGFR V924R mutant. The note with it: 1 μM PDCy3. As to the method:
(§3) Cell sorting. Following starvation in EX-Cell 293 Serum-Free Medium for 44 hours, transfected cells were treated with gefitinib, PDCy3, or EGF for 4 hours at 37° C. Then, the cells were washed twice with 500 μl/well ice-cold PBS, and were re-suspended in 400 μl/well PBS. The final cell density was estimated to be 5×10^5˜1×10^6 cells/ml. To detect EGFR expression, 3 μd anti-EGFR 528 antibody (santa cruz biotechnology inc, USA) at 200 μg/ml concentration was added to each well of re-suspended cells. After 30-minute incubation on ice, cells were washed twice with 500 μl/well PBS, and were re-suspended in […]. Then, 0.3 μl FITC-labelled secondary antibody at a concentration of 2 mg/ml was added to each sample. After incubation on ice for 30 minutes, cells were washed three times with PBS, re-suspended in 400 μl/well PBS, and analyzed by flowcytometry using a BD FACS Calibur machine.
(§4) Cell sorting. Following starvation in EX-Cell 293 Serum-Free Medium for 44 hours, transfected cells were treated with gefitinib, PDCy3, or EGF for 4 hours at 37° C. Then, the cells were washed twice with 500 μL/well ice-cold PBS, and were re-suspended in 400 μL/well PBS. The final cell density was estimated to be 5×10^5˜1×10^6 cells/mL. […] After incubation on ice for 30 minutes, cells were washed three times with PBS, re-suspended in 400 μL/well PBS, and analyzed by floweytometry using a BD FACS Calibur machine.

Assay [3] deals with T3, EGFR L834R (Homo sapiens, UniProt P00533, L858R).
T3 construct: plasmids encoding human EGFR (1-988) and split YFP fragments; expressed in transfected cells; host or cells: HEK 293T
Briefly: Flowcytometry of PDCy3 binding to cells expressing EGFR L834R mutant. The conditions noted are these: L834R mutation, 1 μM PDCy3. As to the method:
as §3, §4

For assay [4], the target named is T4, EGFR dimers (L834R) (Homo sapiens, UniProt P00533, L858R).
T4 construct: one encoding human EGFR(1-998) fused with a split YFP-N(1-172) fragment; the other encoding hEGFR(1-998) linked to a split YFP-C(155-238) fragment; expressed in transfected cells; host or cells: HEK 293T
Briefly: Protein complementary assay (split YFP), PDCy3 binding to EGFR dimers, L834R.
From the text: as §1, §2

Results on 1 compound are retold here after patent US12678518B2, “Theranostic probe and its use for targeting and/or labeling the EGFR kinase and/or the cells expressing EGFR or its family members” (Tianjin University, priority 2019, dated 2026).

Structures are written as SMILES.

Regarding `CN1/C(=C/C=C/C2=[N+](CCCCCC(=O)NCCC/C=C/C(=O)Nc3ccc4ncnc(Nc5cccc(Br)c5)c4c3)c3ccc(S(=O)(=O)O)cc3C2(C)C)C(C)(C)c2cc(S(=O)(=O)[O-])ccc21` [PDCy3, 1-(6-((E)-6-(4-(3-bromophenylamino)quinazolin-6-ylamino)-6-oxohex-4-enylamino)-6-oxohexyl)-3,3-dimethyl-2-((1E,3E)-3-(1,3,3-trimethyl-5-sulfonatoindolin-2-ylidene)prop-1-enyl)-3H-indolium-5-sulfonate], the “fraction of the population with the higher sensitivity to PDCy3 (population A)” value in assay [1] was determined as 49.2%; in assay [4] (L834R receptor pair, 1 μM PDCy3) it was 27.4%. In assay [2], the “enhancement of PDCy3 binding (fraction of PDCy3-bound cells) by V924R mutation” value came out at 8%. For the same compound, the “population (fraction) of PDCy3-bound, EGFR positive cells” value in assay [3] stood at 65.9%. For the same compound, the “sensitivity of population A versus population B in response to PDCy3 binding” value in assay [4] (L858R (so in the source) mutant dimers) came out at 5 times.
